Measurements published in PubChem BioAssay (NCI).
Several values for one entry are separate records, joined by “and”; a condition that tells them apart may be missing. Equal entries are not always repeated.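 Where inhibition never reached the appropriate level, the endpoint shown equals the highest concentration tested. Otherwise, values were interpolated linearly from a five-concentration, 48-hour dose response in 96-well plates. At the GI50, growth is halved. TGI: total growth inhibition.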

Legend:
Experiment in all cases: growth of human tumour cells (NCI), 48 h
HCT-15 colon = tested on: HCT-15 colon
MDA-MB-231 breast = tested on: MDA-MB-231 breast
OVCAR-5 ovarian = tested on: OVCAR-5 ovarian
IGROV1 ovarian = tested on: IGROV1 ovarian
LOX IMVI melanoma = tested on: LOX IMVI melanoma
PC-3 prostate = tested on: PC-3 prostate
MCF7 breast = tested on: MCF7 breast
MDA-N = tested on: MDA-N
SK-MEL-28 melanoma = tested on: SK-MEL-28 melanoma
T-47D breast = tested on: T-47D breast
SW-620 colon = tested on: SW-620 colon
NCI-H522 lung = tested on: NCI-H522 lung

SMILES | TGI (HCT-15 colon) [µM] | TGI (MDA-MB-231 breast) | TGI (OVCAR-5 ovarian) | TGI (IGROV1 ovarian) | TGI (LOX IMVI melanoma) | TGI (PC-3 prostate) | TGI (MCF7 breast) | TGI (MDA-N) | TGI (SK-MEL-28 melanoma) | TGI (T-47D breast) | TGI (SW-620 colon) | TGI (NCI-H522 lung) | GI50 (NCI-H522 lung) | GI50 (SK-MEL-28 melanoma) | GI50 (T-47D breast)
COC[C@@H](C[C@H]1O[C@@](O)([C@H](O)[C@@H]2C[C@H](OC)[C@@H](O)CC/C=C(C)/C=C/[C@@H](O[C@@H]3O[C@@H](C)[C@H](OC)[C@@H](O)[C@@H]3O)[C@H](C)/C=C(C)/C=C(C)/C=C(\C)C(=O)O2)[C@H](C)[C@@H](O)[C@H]1C)O[C@H]1C[C@](C)(O)[C@@H](O[C@H]2C[C@@H](OC)[C@H](O)[C@@H](C)O2)C(C)O1 (some centres not stated) | > 100 | > 100 µM | > 100 µM | > 100 µM | > 100 µM | > 100 µM | > 100 µM | > 100 µM | > 100 µM | > 100 µM | > 100 µM | – | – | – | –
CCOc1cn(C2CC(O)C(CO)O2)c(=O)[nH]c1=O (configuration not stated) | > 100 | > 100 µM | > 100 µM | > 100 µM | > 100 µM | > 100 µM | > 100 µM | > 100 µM | > 100 µM | > 100 µM | > 100 µM | – | – | – | –
COc1cc(/C=C2\C(=O)N(c3ccccc3)C(c3ccccc3)S2(=O)=O)cc(OC)c1OC (configuration not stated) | > 100 | > 100 µM | > 100 µM | – | > 100 µM | – | > 100 µM | 48.3 µM | > 100 µM | > 100 µM | > 100 µM | > 100 µM | – | – | –
O=c1[nH]nc(-c2ccccc2)c2[nH]c3c4ccccc4ccc3c12 | > 100 | – | – | > 100 µM | – | > 100 µM | > 100 µM | 0.545 µM | – | > 100 µM | > 100 µM | > 100 µM | – | – | –
Cc1nc(-c2cc3cc([N+](=O)[O-])ccc3oc2=O)cs1 | > 100 | > 100 µM | > 100 µM | > 100 µM | > 100 µM | > 100 µM | > 100 µM | > 100 µM | > 100 µM | > 100 µM | > 100 µM | – | – | – | –
C=CCCN1CCc2c([nH]c3ccccc23)C1C(=O)O (configuration not stated) | – | – | > 100 µM | > 100 µM | > 100 µM | – | – | – | > 100 µM | – | > 100 µM | > 100 µM | – | – | –
CC(C)[Si](OC1=C(C(=O)N(C)c2cccc(Cl)c2)CCCC1)(C(C)C)C(C)C | 28.4 | 34.6 µM | 22.5 µM | 32.3 µM | 32.6 µM | 24 µM | 29.2 µM | 34.4 µM | 28.6 µM | 18.1 µM | 29.2 µM | – | – | – | –
Cc1ccc([N+](=O)[O-])cc1S(=O)(=O)Nc1ccc(C2=NNC(c3ccccc3)C2)cc1 (configuration not stated) | 62.1 | 77.5 µM | > 100 µM | > 100 µM | – | > 100 µM | 43.7 µM | 92.7 µM | > 100 µM | 28.5 µM | > 100 µM | 57 µM | – | – | –
COc1cc(/C=C(\C#N)C(N)=O)cc(Br)c1O | > 100 | – | > 100 µM | > 100 µM | 59.2 µM and > 100 µM | – | > 100 µM | – | > 100 µM | – | > 100 µM | 35.4 µM and 87.3 µM | 15.7 µM and 28.9 µM | – | –
COc1cc(C(=O)N(Cc2cccnc2)C(=S)N(Cc2cccnc2)C(=O)c2cc(OC)c(OC)c(OC)c2)cc(OC)c1OC | > 100 | – | > 100 µM | – | > 100 µM | – | 34.9 µM | > 100 µM | > 100 µM | > 100 µM | > 100 µM | 97.5 µM | – | – | –
CCOC(=O)CNc1c(OCc2ccccc2)c(=O)c1=O | > 100 | > 100 µM | > 100 µM | > 100 µM | – | > 100 µM | > 100 µM | > 100 µM | > 100 µM | > 100 µM | > 100 µM | > 100 µM | – | – | –
Cc1ccc2c(c1)C(C(=O)N[C@@H]1C(=O)N3[C@@H]1SC(C)(C)[C@@H]3C(=O)O)OCCC2 (some centres not stated) | > 100 | > 100 µM | > 100 µM | > 100 µM | > 100 µM | > 100 µM | > 100 µM | – | > 100 µM | > 100 µM | > 100 µM | > 100 µM | – | – | –
CC1NC(=O)CC(c2ccccc2)N(N=O)C1c1ccccc1 (configuration not stated) | > 100 | – | > 100 µM | > 100 µM | > 100 µM | – | > 100 µM | – | > 100 µM | – | > 31.6 µM | 49.7 µM | – | – | –
O=C(NNC(=S)Nc1cccc(Cl)c1)c1cc(-c2ccccc2)nc2ccccc12 | 29.6 | 33.2 µM | 36 µM | 47 µM | – | 29.3 µM | 23 µM | 36.5 µM | 26.5 µM | 36.4 µM | 31.3 µM | 34.9 µM | – | – | –
CCOC(=O)C(=Cc1[nH]c2ccccc2c1-c1c[nH]c2ccccc12)C(=O)OCC | 43.9 | 39.3 µM | 30.3 µM | 24.8 µM | 26.7 µM | 25 µM | 22.2 µM | 26.5 µM | – | – | – | > 100 µM | – | – | –
Cc1cn(C2CC(N(O)Cc3ccccc3)C(CO[Si](C)(C)C(C)(C)C)O2)c(=O)[nH]c1=O (configuration not stated) | 96.6 | 32.6 µM and 31.3 µM | 42.8 µM and 32.7 µM | 44.8 µM and 29.4 µM | – | 61.7 µM and 28 µM | > 100 µM and 35.1 µM | 35.1 µM and 31.7 µM | > 100 µM and 30.8 µM | > 100 µM and 33.6 µM | 69.2 µM and 34.1 µM | 32.2 µM | – | 37.5 µM and 16.9 µM | 61.7 µM and 18.6 µM
O=C(NI1OC(=O)c2ccccc21)c1ccc(Cl)cc1 | > 100 | > 100 µM | > 100 µM | > 100 µM | > 100 µM | > 100 µM | > 100 µM | – | > 100 µM | > 100 µM | > 100 µM | 35.2 µM | – | – | –
Cc1ccc(N=Nc2c(O)ccc3cc(S(=O)(=O)O)cc(S(=O)(=O)O)c23)cc1 | > 100 | > 100 µM | > 100 µM | > 100 µM | – | > 100 µM | > 100 µM | > 100 µM | > 100 µM | > 100 µM | > 100 µM | > 100 µM | – | – | –
COc1ccc(C2OC[C@H]3O[C@@H](OCc4ccccc4)[C@H](O)[C@@H](O)[C@@H]3O2)cc1 (some centres not stated) | > 100 | > 100 µM | > 100 µM | > 100 µM | > 100 µM | > 100 µM | > 100 µM | > 100 µM | > 100 µM | – | > 100 µM | – | – | – | –
O=C(O)c1ccc([N+](=O)[O-])c2cc3cnccc3nc12 | 45 | 36.2 µM | 76.9 µM | > 100 µM | – | 34.6 µM | 38.7 µM | 51.3 µM | 34.8 µM | 58.6 µM | – | 32.4 µM | – | – | –
